Results taken from ChEMBL document CHEMBL1128123, “Inhibitors of acyl-CoA: Cholesterol O-acyl transferase (ACAT) as hypocholesterolemic agents. 12. Syntheses and biological activity of structurally novel tetrazole amides” (Bioorg Med Chem Lett, 1995).
pIC50: −log10 of the molar value.

How the values were obtained:
[1] = species: Rattus norvegicus; assay: Percent change in total cholesterol in cholic acid (0.5%)-cholesterol (1.5%)-peanut oil (5.5%)-fed rats; type: functional
[2] = target: T1, Sterol O-acyltransferase 1 (Rattus norvegicus, UniProt O70536); assay: Concentration required for the in vitro inhibition of Acyl coenzyme A:cholesterol acyltransferase (ACAT) in liver microsomes isolated from cholesterol-fed rats; set-up: species or system Microsome
T1 sequence (O70536 whole entry): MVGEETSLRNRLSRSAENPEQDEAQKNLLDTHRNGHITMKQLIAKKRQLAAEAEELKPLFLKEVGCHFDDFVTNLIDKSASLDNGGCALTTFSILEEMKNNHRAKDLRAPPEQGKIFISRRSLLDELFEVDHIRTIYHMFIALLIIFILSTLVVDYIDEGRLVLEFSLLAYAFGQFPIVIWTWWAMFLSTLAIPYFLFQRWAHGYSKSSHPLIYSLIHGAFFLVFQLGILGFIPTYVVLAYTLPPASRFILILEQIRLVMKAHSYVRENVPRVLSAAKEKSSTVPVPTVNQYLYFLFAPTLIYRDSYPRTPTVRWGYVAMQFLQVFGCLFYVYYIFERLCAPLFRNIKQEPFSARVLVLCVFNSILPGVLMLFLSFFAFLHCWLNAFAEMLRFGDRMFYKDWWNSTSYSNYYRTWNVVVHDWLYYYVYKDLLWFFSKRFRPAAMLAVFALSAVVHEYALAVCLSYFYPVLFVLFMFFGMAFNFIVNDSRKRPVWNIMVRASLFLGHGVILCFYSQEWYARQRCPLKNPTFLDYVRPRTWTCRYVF

[3] = target: T2, Acyl-CoA:cholesterol acyltransferase (Oryctolagus cuniculus, UniProt Q95214); assay: Concentration required for the in vitro inhibition of Acyl coenzyme A:cholesterol acyltransferase (ACAT) in intestinal microsomes isolated from cholesterol-fed rabbits; set-up: species or system Intestine
T2 sequence (Q95214 whole entry): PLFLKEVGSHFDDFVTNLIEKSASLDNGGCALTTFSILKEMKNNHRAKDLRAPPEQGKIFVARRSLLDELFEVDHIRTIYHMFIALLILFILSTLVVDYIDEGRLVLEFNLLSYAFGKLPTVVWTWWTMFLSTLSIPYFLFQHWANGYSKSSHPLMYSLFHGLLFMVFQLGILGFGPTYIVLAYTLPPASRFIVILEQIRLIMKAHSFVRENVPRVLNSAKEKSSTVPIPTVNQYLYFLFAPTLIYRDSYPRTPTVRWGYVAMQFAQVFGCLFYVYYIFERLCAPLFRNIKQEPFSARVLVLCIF

SMILES | Change TC [1] | pIC50 [2] | pIC50 [3]
CCCCCCCCCCCCCCCn1nnc(C(NC(=O)c2c(C)cccc2C)c2ccccc2)n1 (configuration not stated) | -14% | – | –
CCCCCCCCCCCCn1nnnc1C(NC(=O)c1ccccc1C(F)(F)F)c1ccccc1 (configuration not stated) | -12% | 6.46 | –
CCCCCCCCCCCCn1nnc(C(NC(=O)c2ccccc2C(F)(F)F)c2ccccc2)n1 (configuration not stated) | -15% | 6.92 | –
CCCCCCCCCCCCn1nnnc1C(NC(=O)c1cccc([N+](=O)[O-])c1)c1ccccc1 (configuration not stated) | -31% | 6.72 | –
CCCCCCCCCCCCn1nnc(C(NC(=O)c2ccc(C)cc2)c2ccccc2)n1 (configuration not stated) | -4% | 6.29 | –
CCCCCCCCCCCCn1nnc(C(NC(=O)c2ccc(F)cc2F)c2ccccc2)n1 (configuration not stated) | -10% | 6.31 | –
CCCCCCCCCCCCn1nnc(C(NC(=O)c2ccc(Cl)cc2)c2ccccc2)n1 (configuration not stated) | – | 6.36 | –
CCCCCCCCCCCCn1nnc(C(NC(=O)c2ccc(C(F)(F)F)cc2)c2ccccc2)n1 (configuration not stated) | -10% | 6.07 | –
CCCCCCCCCCCCn1nnnc1C(NC(=O)c1c(C)cccc1C)c1ccccc1 (configuration not stated) | -57% | 6.74 | –
CCCCCCCCCCC(C)(C)C(=O)Nc1c(OC)cc(OC)cc1OC [CL-976] | -73% | – | –
CCCCCCCCCCCCn1nnc(C(NC(=O)c2ccccc2OC)c2ccccc2)n1 (configuration not stated) | -28% | 6.19 | –
CCCCCCCCCCCCn1nnc(C(NC(=O)c2c(Cl)cccc2Cl)c2ccccc2)n1 (configuration not stated) | -26% | 6.34 | –
CCCCCCCCCCCCn1nnc(C(NC(=O)c2c(C)cccc2C)c2ccccc2)n1 (configuration not stated) | -40% | 6.51 | 6.96
CCCCCCCCCCCCn1nnc(C(NC(=O)c2cccc(Cl)c2)c2ccccc2)n1 (configuration not stated) | 3% | 6.60 | –
CCCCCCCCCCCCn1nnc(C(NC(=O)c2c(OC)cc(OC)cc2OC)c2ccccc2)n1 (configuration not stated) | -36% | 5.77 | –
CCCCCCCC/C=C\CCCCCCCCNC(=O)c1c(OC)cc(OC)cc1OC | – | 5.03 | –
CCCCCCCCCCCCn1nnc(C(NC(=O)c2ccc(OC)cc2)c2ccccc2)n1 (configuration not stated) | -34% | 6.22 | –
CCCCCCCn1nnc(C(NC(=O)c2c(C)cccc2C)c2ccccc2)n1 (configuration not stated) | -13% | – | –
CCCCCCCCCCCCn1nnc(C(NC(=O)c2ccnc(SC)c2)c2ccccc2)n1 (configuration not stated) | -68% | 7.10 | –
CCCCCCCCCCC(C)(C)NC(=O)c1c(OC)cc(OC)cc1OC | -10% | < 5.00 | –
CCCCCCCCCCCCn1nnc(C(NC(=O)c2cccc([N+](=O)[O-])c2)c2ccccc2)n1 (configuration not stated) | -33% | 7.10 | –
CCCCCCCCCCCCn1nnc(C(NC(=O)c2ccccc2)c2ccccc2)n1 (configuration not stated) | -5% | 6.46 | –
CCCCCCCCCCCCn1nnc(C(NC(=O)c2ccccc2[N+](=O)[O-])c2ccccc2)n1 (configuration not stated) | -27% | 6.62 | –
CCCCCCCCCCCCn1nnc(C(NC(=O)c2ccc([N+](=O)[O-])cc2)c2ccccc2)n1 (configuration not stated) | 8% | 6.27 | –
CCCCCCCCCCCCn1nnnc1C(NC(=O)c1c(Cl)cccc1Cl)c1ccccc1 (configuration not stated) | -31% | 6.42 | –
CCCCCCCCCCCCn1nnnc1C(NC(=O)c1ccnc(SC)c1)c1ccccc1 (configuration not stated) | -37% | 6.85 | –
CCCCCCCCCCCCn1nnc(C(NC(=O)c2c(C(C)C)cccc2C(C)C)c2ccccc2)n1 (configuration not stated) | 2% | 6.09 | –
CCCCCCCCCCCCn1nnnc1C(NC(=O)c1ccc(F)cc1F)c1ccccc1 (configuration not stated) | -23% | 6.42 | –
